# Source: patent US10336684B2, “Phenyl-(aza)cycloalkyl carboxylic acid GPR120 modulators” (BRISTOL-MYERS SQUIBB COMPANY, priority 2014, dated 2019)
# Target: human GPR120 (Homo sapiens (Human), UniProt Q5NUL3)
# Assay: GPR120 pERK AlphaScreen SureFire assay (human GPR120 pERK assay)
# Format: cell-based
# Settings: CHOA12 or CHO-K1 cells stably transfected with short form of human GPR120, 100% = 50 μM linolenic acid
# Text: GPR120 activity was monitored by measuring phosphorylation of ERK (pERK), since G protein receptors are known to activate the ERK signaling cascade either directly and/or through recruitment of arrestin that serves as a scaffold for downstream signaling events.
# GPR120 pERK AlphaScreen SureFire Assay
# The human and mouse GPR120-mediated intracellular phosphorylated ERK assays were established using CHOA12 cells stably transfected with the short form of human or mouse GPR120 receptor. Cells were cultured in growth medium consisting of F-12 media (Invitrogen Cat. #11765) with 5% Charcoal/Dextran FBS (Invitrogen Cat. #12676-029), 500 μg/mL GENETICIN® (Life Technologies Cat. #10131-027) and 250 μg/mL Zeocin (Invitrogen Cat. #R250-01). Cells were cryo preserved at a concentration of 2×10^7 cells/mL, in 90% Charcoal/Dextran FBS and 10% DMSO, and frozen in liquid nitrogen at a low passage number.
# For the pERK assay, 2×10^7 cells/mL cryopreserved human and mouse cells were thawed rapidly in a 37° C. water bath and added to a T-225 flask containing 50 mL growth medium. The flasks were placed in a tissue culture incubator overnight (37° C., 5% CO2). The next day, cells were harvested with trypsin (Gibco Cat. #25300-054), resuspended in serum-containing growth medium and counted using a Cellometer and volume adjusted to a concentration of 0.6×10^6 cells/mL. Cells were plated into 384-well clear bottom tissue culture plates (BD Cat. #353962) at 50 μL/well, for a density of 30,000 cells/well using a MULTIDROP® and incubated for 16-18 hours (overnight) at 37° C. with 5% CO2. The next day, cells were serum starved in 30 μL of F-12 media without any serum or antibiotics for 2 hours at 37° C.
# Test compounds were 3-fold, 11-point serially diluted in DMSO in a REMP assay plate (Matrix Cat. #4307) by Tecan and 5 μL was transferred into an ECHO source plate (Labcyte Cat. #LC-0200). Cells were then stimulated with 50 nL of compound dilutions using ECHO liquid handler for 7 minutes at 37° C. Compounds ranged from final assay concentrations of 33.33 μM to 0.56 nM.
# The media was then dumped and cells lysed with 20 μL of 1× Lysis buffer from the AlphaScreen SureFire Phospho-ERK 1/2 Kit (Perkin Elmer Cat. #6760617M). The lysis buffer was diluted 5-fold with water before use. The plate was agitated on a shaker for 10 minutes after which 2 μL was transferred into a 384-well white proxiplate (Perkin Elmer Cat. #6008289). The SureFire assay reagent mix was prepared by mixing 60 parts Reaction Buffer, 10 parts Activation Buffer, 1 part Donor Beads, 1 part Acceptor Beads (Perkin Elmer Cat. #TGRES10K). 3.5 μL/well of this reagent mix was manually added to the proxiplate with a multichannel pipettor. Plates were spun down at 1000 rpm for 2 minutes, followed by light-protected incubation at room temperature for 2 hours. The plates were read on the Alpha-technology compatible Envision multilabel plate reader using AlphaScreen protocol according to manufacturer's specifications. The agonist effect of compounds was expressed as 100×(average sample-average blank)/(average total−average blank) where sample is the luminescence activity in the presence of test compound, blank is equal to the luminescence activity in the presence of DMSO control and the total is signal induced by 50 μM linolenic acid as reference compound. Activation data for the test compound over a range of concentrations was plotted as percentage activation of the test compound (100%=maximum response). After correcting for background, EC50 values were determined. The EC50 is defined as the concentration of test compound which produces 50% of the maximal response and was quantified using the 4 parameter logistic equation to fit the data.
# The human and mouse GPR120-mediated intracellular phosphorylated ERK assays were also established using CHO-K1 cells stably transfected with the short form of human or mouse GPR120 receptor. […]
# Sequence of human GPR120 (Q5NUL3 whole entry): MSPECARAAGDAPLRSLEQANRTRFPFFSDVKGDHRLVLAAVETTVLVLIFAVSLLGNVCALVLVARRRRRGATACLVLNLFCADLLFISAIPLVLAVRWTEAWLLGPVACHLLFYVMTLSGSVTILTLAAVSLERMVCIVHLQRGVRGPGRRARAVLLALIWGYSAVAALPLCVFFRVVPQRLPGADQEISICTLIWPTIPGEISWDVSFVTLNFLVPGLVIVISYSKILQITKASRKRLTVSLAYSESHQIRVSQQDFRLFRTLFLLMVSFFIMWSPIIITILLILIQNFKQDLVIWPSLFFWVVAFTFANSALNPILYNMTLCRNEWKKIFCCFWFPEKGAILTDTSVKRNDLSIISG
row,EC50,Compound
1,630 nM,"O=C(O)COCCc1ccc(C2CCCCC(Oc3ccccc3)C2)cc1 (stereo not shown) [Example 14, 2-(4-(3-Phenoxycycloheptyl)phenethoxy)acetic acid]"
2,3610 nM,O=C(O)[C@H]1C[C@@H]1CCc1ccc(N2CCC[C@@H](c3ccccc3)C2)cc1 [Example 53]
3,1310 nM,O=C(O)[C@H]1C[C@@H]1CCc1ccc(N2CCC[C@H](Oc3ccccc3)C2)cc1 [Example 49]
4,4320 nM,O=C(O)COCCc1ccc(N2CC(Oc3ccccc3)C2)cc1 [Example 63]
5,1380 nM,"O=C(O)CCCCc1ccc(C2CCC(Oc3ccccc3)C2)cc1 (stereo not shown) [Example 18, 5-(4-(3-Phenoxycyclopentyl)phenyl)pentanoic acid]"
6,3220 nM,O=C(O)[C@H]1C[C@@H]1CCc1ccc(N2CCC[C@@H](Oc3ccccc3)C2)cc1 [Example 48]
7,4240 nM,O=C(O)COCCc1ccc([C@@H]2CCC[C@H](Oc3ccc(F)cc3)C2)cc1 (racemic) [Example 37]
8,2360 nM,"O=C(O)CCCCc1ccc([C@@H]2CCC[C@@H](Oc3ccccc3)C2)cc1 (single isomer, unassigned) [Example 2, 5-(4-((+/−)-3-Phenoxycyclohexyl)phenyl)pentanoic acid]"
9,3770 nM,CC(C)OC1CCC(c2ccc(CCCCC(=O)O)cc2)C1 (stereo not shown) [Example 47]
10,720 nM,O=C(O)COCCc1ccc([C@@H]2CCC[C@H](Oc3ccc(Cl)cc3)C2)cc1 (racemic) [Example 38]
